Experimental findings from patent publication US20150218212A1, “FLUORINATED EPOXYKETONE-BASED TETRAPEPTIDE COMPOUNDS AND USES THEREOF AS PROTEASOME INHIBITORS” (FLUORINOV PHARMA INC., priority 2012, published 2015) are described below.

Assay [1] has as its target T1, proteasome Caspase-like (C-L) activity (Mus musculus, UniProt P70195+Q60692).
T1 construct: RBCs were lysed with assay lysis buffer and incubated on ice for 30 minutes; from tissue; host or cells: red blood cells of NOD/SCID mice
The assay can be described thus: Pharmacodynamic proteasome activity in murine red blood cells, C-L. The settings on record: iv, mice, 2 mg/kg i.v., time 0, read-out: Caspase-like (C-L) mean residual activity relative to vehicle treated controls. It is filed as in vivo, NOD/SCID mice. As to the method: Cells were harvested by centrifugation at 1,200 rpm at room temperature. Cell pellets were washed with PBS (phosphate buffered saline) and lysed with assay lysis buffer (50 mM HEPES (N-2-hydroxyethylpiperazine-N′-2-ethanesulfonic acid), pH 7.5; 150 mM NaCl; 1% Triton X-100; 2 mM ATP). Cell lysates were incubated on ice for 30 minutes, mixed by vortex every 5 minutes, and then centrifuged at 12,000 g for 10 minutes. The supernatant was transferred to a 96-well plate. For each assay, 10 μg of total protein were incubated for 1 hour at 37° C. with increasing concentrations (1 nM to 10 μM) of test compound diluted in assay buffer (50 mM tris-HCl (tris(hydroxymethyl)aminomethane-HCl), pH 7.5; 150 mM NaCl). DMSO alone was used as a control in every assay plate. After incubation, a specific fluorogenic proteasome substrate was added to each assay reaction at a final concentration of 40 μM in a total volume of 100 μL. N-Succinyl-Leu-Leu-Val-Tyr-7-amino-4-methylcoumarin (Suc-Leu-Leu-Val-Tyr-AMC) was used for measuring chymotrypsin-like (CT-L) activity, t-butoxycarbonyl-Leu-Arg-Arg-7-amino-4-methylcoumarin (Boc-Leu-Arg-Arg-AMC) for trypsin-like (T-L) activity, and benzyloxycarbonyl-L-leucyl-L-leucyl-L-glutamyl-7-amino-4-methylcoumarin (Z-Leu-Leu-Glu-AMC) for caspase-like (C-L) activity. The excitation wavelength was set at 360 nm and the fluorescence emission wavelength of AMC was detected at 460 nm. The fluorescence of free AMC released during the enzymatic reaction was measured with a SpectraMax M5 fluorescent spectrophotometric plate reader (Molecular Devices, Sunnyvale, Calif.). AMC release rate was measured at 37° C. in a kinetic mode, recording every 5 minutes for 30 minutes. Experiments were performed in triplicate and repeated at least twice.
All mouse experiments were performed in accordance with approval from the Ontario Cancer Institute institutional animal review board. Five- to six-week-old male non-obese diabetic/severe combined immunodeficient (NOD/SCID) mice were grouped randomly (n=3 mice per group). Mice were administered vehicle (5% DMSO, 20% Cremophor) or compounds of Formula I at different doses either intravenously or by oral gavage, and venous blood samples (20-50 μL) were collected from each mouse over 24 hours. Blood samples were mixed with heparin (APP Pharmaceuticals; Schaumburg, Ill.) in 0.5 mL tubes in accordance with the manufacturer's instructions. After centrifugal separation at 3,000 g for 10 minutes, red blood cells (RBCs) in the bottom layer were transferred into a new tube and stored at −70° C. until use. RBCs were lysed with assay lysis buffer and incubated on ice for 30 minutes, mixing by vortex every 5 minutes, and then centrifuged at 12,000 g for 10 minutes. The supernatant was transferred to a 96-well plate and proteasome activity was measured as described above for tumor cell lysates.
Proteasome subunit activity (Chymotrypsin-like, Trypsin-like, Caspase-like, CT-L, T-L, C-L, respectively) were monitored over the course of 24 hrs following […] administration of representative compounds of Formula I. NOD/SCID mice were treated with compounds of Formula I (2 mg/kg by iv administration) or vehicle control and carfilzomib for up to 24 hours, as described above. Table 9 summarizes the data on pharmacodynamic activity of representative compounds of Formula I following a dose of 2 mg/kg intravenous (i.v) administration to mice. Data are presented as mean residual activity (SEM) relative to vehicle treated controls.

A further assay has as its system SF-539. Kind of assay: NCI screening panel, SF-539 (CNS Cancer). It is filed as cell-based, human. As to the method: Representative compounds of Formula I were screened using the National Cancer Institute (NCI) screening panel, which consists of a panel of human tumor cell lines, representing leukemia, melanoma, and cancers of the lung, colon, ovary, breast, prostate and renal system.
After 24 h, two plates of each cell line are fixed in situ with TCA, to represent a measurement of the cell population for each cell line at the time of drug addition (Tz). Experimental drugs are solubilised in dimethyl sulfoxide at 400-fold the desired final maximum test concentration and stored frozen prior to use. At the time of drug addition, an aliquot of frozen concentrate is thawed and diluted to twice the desired final maximum test concentration with complete medium containing 50 μg/mL gentamicin. Additional four, 10-fold or ½ log serial dilutions are made to provide a total of five drug concentrations plus control. Aliquots of 100 μl of these different drug dilutions are added to the appropriate microtiter wells already containing 100 μl of medium, resulting in the required final drug concentrations.
Following drug addition, the plates are incubated for an additional 48 h at 37° C., 5% CO2, 95% air, and 100% relative humidity. For adherent cells, the assay is terminated by the addition of cold TCA (trichloroacetic acid). Cells are fixed in situ by the gentle addition of 50 μl of cold 50% (w/v) TCA (final concentration, 10% TCA) and incubated for 60 minutes at 4° C. The supernatant is discarded, and the plates are washed five times with tap water and air dried. Sulforhodamine B (SRB) solution (100 μl) at 0.4% (w/v) in 1% acetic acid is added to each well, and plates are incubated for 10 minutes at room temperature. After staining, unbound dye is removed by washing five times with 1% acetic acid and the plates are air dried. Bound stain is subsequently solubilised with 10 mM trizma base, and the absorbance is read on an automated plate reader at a wavelength of 515 nm. For suspension cells, the methodology is the same except that the assay is terminated by fixing settled cells at the bottom of the wells by gently adding 50 μl of 80% TCA (final concentration, 16% TCA). Using the seven absorbance measurements [time zero, (Tz), control growth, (C), and test growth in the presence of drug at the five concentration levels (Ti)], the percentage growth is calculated at each of the drug concentrations levels. Percentage growth inhibition is calculated as: [(Ti−Tz)/(C−Tz)]×100 for concentrations for which Ti>/=Tz and [(Ti−Tz)/Tz]×100 for concentrations for which Ti<Tz.
Three dose response parameters are calculated for each experimental agent. Growth inhibition of 50% (GI50) is calculated from [(Ti−Tz)/(C−Tz)]×100=50, which is the drug concentration resulting in a 50% reduction in the net protein increase (as measured by SRB staining) in control cells during the drug incubation. The drug concentration resulting in total growth inhibition (TGI) is calculated from Ti=Tz. The LC50 (concentration of drug resulting in a 50% reduction in the measured protein at the end of the drug treatment as compared to that at the beginning) indicating a net loss of cells following treatment is calculated from [(Ti−Tz)/Tz]×100=−50. Values are calculated for each of these three parameters if the level of activity is reached. However, if the effect is not reached or is exceeded, the value for that parameter is expressed as greater or less than the maximum or minimum concentration tested.

Structures are written as SMILES. Where only a bound is given, the exact number is not on record here.

With `CC(C)C[C@H](NC(=O)[C@H](COC(F)F)NC(=O)CN1CCOCC1)C(=O)N[C@@H](COC(F)F)C(=O)N[C@@H](CC(C)C)C(=O)[C@@]1(C)CO1` [Example 1, (2S)—N-[(1S)-1-(difluoromethoxymethyl)-2-[[(1S)-3-methyl-1-[(2R)-2-methyloxirane-2-carbonyl]butyl]amino]-2-oxo-ethyl]-2-[[(2S)-3-(difluoromethoxy)-2-[(2-morpholinoacetyl)amino]propanoyl]amino]-4-methyl-pentanamide], the remaining activity at 2 mg/kg in assay [1] came out at 100%. Besides, in the assay with SF-539, the Log10GI50 is −7.78, the Log10LC50 was −6.62 and the Log10TGI50 is listed as −7.35.
For `CC(C)C[C@H](NC(=O)[C@H](COC(F)F)NC(=O)CN1CCOCC1)C(=O)N[C@@H](Cc1ccccc1)C(=O)N[C@@H](CC(C)C)C(=O)[C@@]1(C)CO1` [Example 2, (2S)-N-[(1S)-1-benzyl-2-[[(1S)-3-methyl-1-[(2R)-2-methyloxirane-2-carbonyl]butyl]-amino]-2-oxo-ethyl]-2-[[(2S)-3-(difluoromethoxy)-2-[(2-morpholinoacetyl)amino]propanoyl]amino]-4-methyl-pentanamide] the same measures were 100%, −7.87, −7.06 and −7.46.
For `CC(C)C[C@H](NC(=O)[C@H](COC(F)F)NC(=O)CN1CCOCC1)C(=O)N[C@@H](Cc1ccccc1)C(=O)N[C@@H](Cc1ccccc1)C(=O)[C@@]1(C)CO1` [Example 3, (2S)-N-[(1S)-1-benzyl-2-[[(1S)-1-benzyl-2-[(2R)-2-methyloxiran-2-yl]-2-oxo-ethyl]amino]-2-oxo-ethyl]-2-[[(2S)-3-(difluoromethoxy)-2-[(2-morpholinoacetyl)-amino]propanoyl]amino]-4-methyl-pentan-amide] the same measures were 100%, less than −8.00, −4.07 and −7.42.
For `CC(C)C[C@H](NC(=O)[C@H](COC(F)F)NC(=O)CN1CCOCC1)C(=O)N[C@@H](COC(F)F)C(=O)N[C@@H](Cc1ccccc1)C(=O)[C@@]1(C)CO1` [Example 4, (2S)-N-[(1S)-2-[[(1S)-1-benzyl-2-[(2R)-2-methyloxiran-2-yl]-2-oxo-ethyl]amino]-1-(difluoromethoxymethyl)-2-oxo-ethyl]-2-[[(2S)-3-(difluoromethoxy)-2-[(2-mor-pholinoacetyl)amino]propanoyl]amino]-4 methyl-pentanamide], in that order: 100%, −7.64, −5.26 and −7.22.
With `CC(C)C[C@H](NC(=O)[C@H](COC(F)F)NC(=O)[C@H](COC(F)F)NC(=O)[C@H](CCc1ccccc1)NC(=O)CN1CCOCC1)C(=O)[C@@]1(C)CO1` [Example 7, (2S)-N-[(1S)-1-(difluoromethoxymethyl)-2-[[(1S)-1-(difluoromethoxymethyl)-2-[[(1S)-3-methyl-1-[(2R)-2-methyloxirane-2-carbo-nyl]butyl]amino]-2-oxo-ethyl]amino]-2-oxo-ethyl]-2-[(2-morpholinoacetyl)amino]-4-phenyl-butanamide], the remaining activity at 2 mg/kg in assay [1] was found to be 100%. In the assay on SF-539, this compound gave a Log10GI50 of −7.74, a Log10LC50 of −4.26 and a Log10TGI50 of −7.20.
For `CC(C)C[C@H](NC(=O)[C@H](Cc1ccccc1)NC(=O)[C@H](COC(F)F)NC(=O)[C@H](COC(F)F)NC(=O)CN1CCOCC1)C(=O)[C@@]1(C)CO1` [Example 11, (2S)-2-[[(2S)-3-(difluoromethoxy)-2-[[(2S)-3-(difluoromethoxy)-2-[(2-morpholinoacetyl)-amino]propanoyl]amino]propanoyl]amino]-N-[(1S)-3-methyl-1-[(2R)-2-methyloxirane-2-carbonyl]butyl]-3-phenyl-propanamide] the same measures were 100%, −7.66, −5.48 and −7.21.
Take `CC(C)C[C@H](NC(=O)[C@H](COC(F)F)NC(=O)[C@H](COC(F)F)NC(=O)[C@H](COC(F)F)NC(=O)CN1CCOCC1)C(=O)[C@@]1(C)CO1` [Example 17, (2S)-3-(difluoromethoxy)-N-[(1S)-1-(difluoromethoxymethyl)-2-[[(1S)-1-(difluoro-methoxymethyl)-2-[[(1S)-3-methyl-1-[(2R)-2-methyloxirane-2-carbonyl]butyl]amino]-2-oxo-ethyl]amino]-2-oxo-ethyl]-2-[(2-mor-pholinoacetyl)amino]-propanamide]: the remaining activity at 2 mg/kg in assay [1] turned out to be 100%. In the assay with SF-539, this compound showed a Log10GI50 of −7.38 and a Log10TGI50 of −6.67.
